What was measured:
[1] = test system: CT26 colon carcinoma tumors; experiment: Colon carcinoma tumor growth and cure, two 224Ra wires with 5-FU; format: in vivo, Balb/c mice; settings: 5-FU 75 mg/kg 24 hours prior to wires; tumors 6-7 mm in diameter
Protocol: FIG. 7 is a graph showing the effect of two ^224Ra-loaded wires combined with 5-FU treatment on colon cancers. Treatment was applied to Balb/c mice bearing 6-7 mm in diameter tumors. Two ^224Ra wires: Tumor bearing mice treated with 2 ^224Ra wires, carrying activities in the range of 27.9-35.5 kBq (n=5). Two ^224Ra wires combined with 5-FU: administration of 75 mg/kg 5-FU 24 hours prior to treatment with 2 ^224Ra wires, carrying activities in the range of 32.1-33.8 kBq (n=5). Two Inert wires combined with 5-FU: administration of 75 mg/kg 5-FU 24 hours prior to treatment with 2 inert wires (n=6). Two Inert wires: Tumor bearing mice treated with 2 inert wires (n=6).
Tumor cell inoculation: Animals were inoculated intra-cutaneously with 5·10^5 SQ2 cells in 0.2 ml HBSS or 10^5 (CT26 and Panc-02) in 0.1 ml of HBSS (Biological industries, Beit haemek, Israel) into the low lateral side of the back. Local tumor growth was determined by measuring three mutually orthogonal tumor diameters with a digital caliper (Mitutoyo, Japan). The volume of tumor was calculated using the formula: V=(π/6)·D1D2D3, where D1, D2, D3 stand for the measured diameters […]

[2] = test system: lung metastases of SQ2 tumors; experiment: Histological assessment of lung metastatic load; format: in vivo, BALB/c mice; settings: treatment given alone, day 26, compared to inert wires
Protocol: Histology: Histological analysis was performed on BALB/c mice lungs, both treated and untreated. Immediately following their removal, lungs were fixed by a 4% formaldehyde solution (Sigma, Rehovot, Israel) for at least 24 hrs. The preserved specimens were embedded in paraffin, and sections (5-10 μm) were stained with hematoxylin-eosin (H&E) (Surgipath, Richmond, USA) and analyzed for metastases detection. Metastatic burden quantification was performed by summing the gray values of all the pixels in the region of interest (ROI) divided by the number of pixels using image J free software [http://rsbdotinfodotnihdotgov/ij/].
Histological assessment of lung sections was conducted in order to investigate the effect of the destruction of the primary tumor by DART wires on the development of metastases with or without the addition of cisplatin. Each 4 groups (Inert, ^224Ra wires, CP, CP+^224Ra wires) contained 3 animals. Animals were sacrificed at day 26 (lung metastases has been observed in this model at this time in previous studies) and lungs were harvested and processed for histological analysis and compared to normal lung tissues taken from healthy BALB/c mice. FIG. 5C describes the inhibition of lung metastatic load in mice treated with both intratumoral alpha irradiation and chemotherapy when compared to lungs of mice treated with inert wires.

[3] = test system: SQ2 tumors; experiment: Tumor growth and survival, two 224Ra wires at the tumor base with two cisplatin doses; format: in vivo, BALB/c mice
Protocol: Tumor cell inoculation: Animals were inoculated intra-cutaneously with 5·10^5 SQ2 cells in 0.2 ml HBSS or 10^5 (CT26 and Panc-02) in 0.1 ml of HBSS (Biological industries, Beit haemek, Israel) into the low lateral side of the back. Local tumor growth was determined by measuring three mutually orthogonal tumor diameters with a digital caliper (Mitutoyo, Japan). The volume of tumor was calculated using the formula: V=(π/6)·D1D2D3, where D1, D2, D3 stand for the measured diameters
Wire insertion: Wires, either loaded with ^224Ra or inert, cut to a length of 5-6 mm, were placed near the tip of a 23G needle attached to a 2.5 ml syringe (Picindolor, Rome, Italy) and inserted into the tumor by a plunger placed internally along the syringe axis.
Statistical analysis: The statistical significance (p-value) of the differences between tumor volumes in the various groups was assessed by applying Student's two-sided t-test and repeated measures ANOVA. Survival analysis (Mantel-Cox test) was carried out using Statsoft Statistica 7.0.
The following experiment was performed in order to examine the effect of two ^224Ra wires inserted horizontally to the base of each tumor in combination with 2 doses of chemotherapy. The cisplatin was administered using the same regime as that described in Example 3.
A pronounced difference between tumor volumes of the irradiated group (^224Ra wires) and the animals treated with Cisplatin (CP) can be seen 10 days following DART treatment. […] Moreover, when analyzing the results of the group treated with the combination of Cisplatin and ^224Ra wires, it appears that a major growth inhibition was achieved when both modalities were administrated concomitantly. […] Twenty-four days following DART treatment, the average tumor volumes of the combined treatment group was 14 fold smaller compared to the inert control group (300 mm^3 and 4286 mm^3 respectively), and 3 fold smaller compared to the best effect achieved by the radioactive wires alone (924 mm^3). […]

[4] = test system: SQ2 cells; experiment: XTT cell proliferation assay on radioactive (224Ra-implanted) microplates; format: cell-based, mouse
Protocol: Tumors: SQ2 cell line is a murine anaplastic cell line, which was generated from a SCC tumor that has developed spontaneously in a male BALB/c mouse. Panc02 is a murine pancreatic carcinoma cell line. CT26 cells is a N-nitroso-N-methylurethane-(NNMU) induced, undifferentiated colon carcinoma cell line which was purchased from the ATCC (CRL-2638). All cells were grown in Dulbecco's Modified Eagle Medium (DMEM) supplemented with 10% Fetal Calf Serum (Biological Industries, Beit Haemek, Israel), L-glutamine (2 mM), Penicillin (100 U/ml) and Streptomycin (100 μg/ml). […]
Cell proliferation assay: The antiproliferative effects of alpha particles and cisplatin, alone and in combination, were determined using a 3-bis (2-methoxy-4-nitro-5 sulfenyl)-(2H)-tetrazolium-5-carboxanilide (XTT) assay (Cell Proliferation Kit, Biological industries, Beit-haemek, Israel). […] After two hours of incubation, absorbance was analyzed using an automated spectrophotometer (VersaMax, Molecular Devices, USA) at 475 nm wavelength.
SQ2 cells were plated in 96 well plates implanted with ^224Ra atoms (0, 0.02, 0.063, 0.2, 0.63 and 2 Bq/mm^2, radioactive microplates). […] Cell numbers were assessed by the XTT assay 24, 48, and 72 hrs of incubation and expressed as percent of non-treated control cells.

Row | SMILES | No. of animals with tumors following treatment [1] | effect on lung metastatic burden (in words) [2] | average tumor volume, fold greater than the DART treated group ([3]; 32 days after tumor cell inoculation, cisplatin 2 x 5 mg/kg vs two 224Ra wires) | prolongation of average survival compared to inert group ([3]; two wires, cisplatin 2 x 5 mg/kg) | mean survival ([3]; two wires, cisplatin 2 x 5 mg/kg, inert control 43.92 days) | proliferation inhibition ([4]; 0.3 μM cisplatin alone, 72 hours) | antiproliferative effect ([4]; 3 and 30 μM, drug alone)
1 | O=c1[nH]cc(F)c(=O)[nH]1 [Two inert wires and 5-FU, 5-fluorouracil] | 6/6 with | – | – | – | – | – | –
2 | N.N.[Cl][Pt][Cl] [cisplatin] | – | decreased metastatic burden although less than the combined treatment | 2.14 fold | 17% | 51.38 days | 21% | > 60%

From patent US20100015042A1, “Combine radiation therapy and chemotherapy for treating cancer” (priority 2008, published 2010)
